Source: patent publication US20240025919A1, “AZA-TETRACYCLIC OXAZEPINE COMPOUNDS AND USES THEREOF” (Genentech, Inc., priority 2022, published 2024)
Where “and” joins values, the source holds several entries; their conditions need not be identical. Equal entries are not always repeated. Where two headings read alike, the source gives them in different places. Each block holds one compound with its values, some of them ahead of it.

Experiments:
KRAS G12D = KRAS G12D (Homo sapiens (Human), UniProt P01116, G12D); assay: KRAS G12D LoEnz Biochemical Assay, BODIPY-GDP Exchange TR-FRET (SOS1-mediated nucleotide exchange); settings: read-out: KRas (G12D) GDP HTRF IC50
Chain of KRAS G12D (P01116-2 other isoform, or with tags, fused parts or gaps G12D): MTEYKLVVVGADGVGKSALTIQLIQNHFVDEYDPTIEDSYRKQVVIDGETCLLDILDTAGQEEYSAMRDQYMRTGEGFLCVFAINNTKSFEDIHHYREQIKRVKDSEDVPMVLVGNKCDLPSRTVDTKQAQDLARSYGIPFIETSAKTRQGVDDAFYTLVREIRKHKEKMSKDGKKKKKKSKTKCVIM

KRAS WT [1] = target: T1, KRAS WT (Homo sapiens (Human), UniProt P01116); assay: KRAS WT Biochemical Assay, BODIPY-GDP Exchange TR-FRET (Example 502; 0.06 nM KRAS WT, 15 nM GDP, 300 nM SOS1, 120-minute incubation); settings: read-out: KRas HTRF IC50
T1 sequence (P01116-2 other isoform, or with tags, fused parts or gaps): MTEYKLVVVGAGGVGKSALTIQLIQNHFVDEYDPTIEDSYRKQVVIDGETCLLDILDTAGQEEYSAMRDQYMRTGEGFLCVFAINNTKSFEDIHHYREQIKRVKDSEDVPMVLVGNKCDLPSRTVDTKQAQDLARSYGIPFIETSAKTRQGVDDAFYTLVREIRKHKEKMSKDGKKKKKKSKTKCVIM
Procedure, shortened: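 IC50 from a 4-parameter Hill fit of percent inhibition, itself the TR-FRET 520/490 nm ratio scaled between DMSO and a fully inhibiting control. Reaction: 300 nM SOS1 and 300 nM BODIPY-GDP added to preformed 0.06 nM KRAS WT/15 nM GDP/Tb-streptavidin complex; 120 min incubation; pH 7.5 HEPES, MgCl2, DTT.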

[2] = test system: AsPC-1 (homozygous mutant KRAS G12D human pancreatic cell line); assay: KRAS 3D-Cell Proliferation Assay, AsPC-1 (CellTiter-Glo 3D, 7 days); type: cell-based; settings: AsPC-1 3D culture, read-out: Prolif AsPC-1 3D ATP IC50
Method: (§1) Example 503: KRAS 3D-Cell Proliferation Assays. Cellular potencies of compounds are assessed by evaluating inhibition of proliferation in 3D cultures of homozygous mutant KRAS G12D human pancreatic cell lines (AsPC-1 and HPAC) as compared to a KRAS wild type human lung adenocarcinoma cell line (PC-9 and/or H1975). Cells are seeded into 384-well black round-bottom, ultra-low attachment assay plates in 50 uL cell growth medium (RPMI-1640 with 10% fetal bovine serum and 2 mM L-glutamine). After overnight incubation at 37° C. and 5% CO2, compounds solubilized in DMSO are added as dilution series to the wells in a total volume of 150 nL (0.3% DMSO final). The cells are incubated for 7 days at 37° C. and 5% CO2. Cell proliferation is quantitated by addition of 40 uL/well of CellTiter-GloO 3D (Promega), and the well contents are mixed 20× at high speed using liquid handling automation workstation (Bravo with 384-well head) and centrifuged at 1500 rpm for 2 minutes to eliminate bubbles. This reagent in combination with mechanical disruption releases the cellular ATP to promote activity in a luciferase-based enzyme/substrate chemiluminescent detection system. After a 30-minute incubation under ambient conditions with shaking and an additional 10 minutes without shaking, the luminescence is read on a plate reader (e.g. EnVision [PerkinElmer]). The results are normalized to percent inhibition based on the following control samples: DMSO (0% inhibition) and 1 uM staurosporine (100% inhibition). The normalized luminescence results are plotted against compound concentration, and the data are fit to a 4-parameter Hill equation to determine the IC50 values.

[3] = test system: HPAC (homozygous mutant KRAS G12D human pancreatic cell line); assay: KRAS 3D-Cell Proliferation Assay, HPAC (CellTiter-Glo 3D, 7 days); type: cell-based; settings: HPAC 3D culture, read-out: Prolif HPAC 3D ATP IC50
Procedure, shortened: (§2)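 Cells were grown as 3D cultures in ultra-low attachment plates in RPMI-1640 with 10% FBS and 2 mM glutamine. Compound dilution series (0.3% DMSO final) were added after overnight culture, and plates were incubated for 7 days at 37 °C. CellTiter-Glo 3D luminescence was normalised to DMSO and 1 uM staurosporine, and IC50 was taken from 4-parameter Hill fits.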

[4] = test system: H1975 (KRAS wild type human lung adenocarcinoma cell line); assay: KRAS 3D-Cell Proliferation Assay, H1975 (CellTiter-Glo 3D, 7 days); type: cell-based; settings: H1975 3D culture, read-out: Prolif H1975 3D ATP IC50
Procedure, shortened: as §2

KRAS WT [5] = target: T1, KRAS WT; assay: KRAS WT Biochemical Assay, BODIPY-GDP Exchange TR-FRET (Example 501; 3 nM KRAS WT, 3 nM SOS1, 60-minute incubation)
Procedure, shortened: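 SOS1-mediated exchange assay: 3 nM biotin-KRAS WT with terbium-streptavidin, started with 3 nM SOS1 and 300 nM BODIPY-GDP, HEPES pH 7.5 with MgCl2. TR-FRET (520/490 nm) read after 60 min; normalized to DMSO and full-inhibition control, IC50 from 4-parameter Hill fit.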

[6] = test system: PC-9 (KRAS wild type human lung adenocarcinoma cell line); assay: KRAS 3D-Cell Proliferation Assay, PC-9 (CellTiter-Glo 3D, 7 days); type: cell-based; settings: PC-9 3D culture, read-out: Prolif PC9 3D ATP IC50
Method: as §1

[7] = read-out: KRas(wt) GDP HTRF IC50

SMILES: Cc1c(F)c(N)cc(-c2nc3c4c(nc(OC[C@]56CCC[C@@H]5N(C)CCC6)nc4c2F)N2C[C@H]4CC[C@H](N4)[C@H]2[C@H](C)O3)c1C(F)(F)F (single isomer, unassigned) [126 (isomer 1)]
- IC50 (KRAS G12D): 0.1 nM
- IC50 (KRAS WT [1]): 0.42 nM
- IC50 ([2]; Homo sapiens, ASPC1, 168 h): 0.6 nM
- IC50 ([3]; Homo sapiens, HPAC, 168 h): 0.51 nM
- IC50 ([4]; Homo sapiens, NCI-H1975, 168 h): 770 nM

SMILES: Cc1c(F)c(N)cc(-c2nc3c4c(nc(OC[C@]5(CN6CC7(COC7)C6)CC5(F)F)nc4c2F)N2C[C@H]4CC[C@H](N4)[C@H]2[C@H](C)O3)c1C(F)(F)F (stereo in doubt) [165 c, 5-((5S,5aS,6S,9R)-12-((1-((2-Oxa-6-azaspiro[3.3]heptan-6-yl)methyl)-2,2-difluorocyclopropyl)methoxy)-1-fluoro-5-methyl-5a,6,7,8,9,10-hexahydro-5H-4-oxa-3,10a,11,13,14-pentaaza[6,9]methanonaphtho[1,8-ab]heptalen-2-yl)-2-fluoro-3-methyl-4-(trifluoromethyl)aniline]
- IC50 (KRAS G12D): 0.09 nM
- IC50 (KRAS WT [1]): 2.19 nM
- IC50 [2]: 1.1 nM
- IC50 [3]: 1.09 nM
- IC50 [4]: 481 nM

SMILES: Cc1c(F)c(N)cc(-c2nc3c4c(nc(OC[C@]5(CN6CC7(COC7)C6)CC5(F)F)nc4c2F)N2C[C@H]4CC[C@H](N4)[C@H]2[C@H](C)O3)c1C(F)(F)F (single isomer, unassigned) [165 b]
- IC50 (KRAS G12D): 0.1 nM
- IC50 (KRAS WT [1]): 1.43 nM
- IC50 [2]: 0.849 nM
- IC50 [3]: 0.66 nM
- IC50 [4]: 499 nM

- IC50 (KRAS WT [5]; [7]): 561 nM and 331 nM
- IC50 ([2]; Homo sapiens, ASPC1, 168 h): 20000 nM
- IC50 [6]: 4240 nM
SMILES: CN1CCC2COc3nc(-c4cc(O)cc5cccc(F)c45)c(F)c4nc(OC[C@@]56CCCN5C[C@H](F)C6)nc(c34)N2CC1 (single isomer, unassigned) [Compound 49]

SMILES: C[C@@H]1Oc2nc(-c3cc(N)nc4ccccc34)c(F)c3nc(OC[C@]45CCN4CC(F)(F)C5)nc(c23)N2C[C@H]3CC[C@H](N3)[C@@H]12 [Compound 79, 4-((5S,5aS,6S,9R)-12-(((R)-3,3-Difluoro-1-azabicyclo[3.2.0]heptan-5-yl)methoxy)-1-fluoro-5-methyl-5a,6,7,8,9,10-hexahydro-5H-4-oxa-3,10a,11,13,14-pentaaza-6,9-methanonaphtho[1,8-ab]heptalen-2-yl)quinolin-2-amine]
- IC50 (KRAS G12D): 22.7 nM
- IC50 (KRAS WT [5]; [7]): 954 nM
- IC50 (KRAS WT [1]): 1530 nM
- IC50 [2]: 4040 nM
- IC50 [6]: 20000 nM

SMILES: Cc1c(F)c(N)cc(-c2nc3c4c(nc(OC[C@]5(CN6CC7(COC7)C6)CC5(F)F)nc4c2F)N2C[C@H]4CC[C@H](N4)[C@H]2[C@H](C)O3)c1C(F)(F)F (mixture of isomers) [165 a, 5-((5S,5aS,6S,9R)-12-((1-((2-Oxa-6-azaspiro[3.3]heptan-6-yl)methyl)-2,2-difluorocyclopropyl)methoxy)-1-fluoro-5-methyl-5a,6,7,8,9,10-hexahydro-5H-4-oxa-3,10a,11,13,14-pentaaza[6,9]methanonaphtho[1,8-ab]heptalen-2-yl)-2-fluoro-3-methyl-4-(trifluoromethyl)aniline]
- IC50 (KRAS G12D): 0.08 nM
- IC50 (KRAS WT [1]): 1.14 nM
- IC50 ([2]; Homo sapiens, ASPC1, 168 h): 0.6 nM
- IC50 ([3]; Homo sapiens, HPAC, 168 h): 0.63 nM
- IC50 ([4]; Homo sapiens, NCI-H1975, 168 h): 374 nM

SMILES: Cc1ccnc(-c2nc3c4c(nc(OC[C@]56CCN5CC(F)(F)C6)nc4c2F)N2C[C@H]4CC[C@H](N4)[C@H]2[C@H](C)O3)c1C(F)(F)F [Compound 88, (5S,5aS,6S,9R)-12-(((R)-3,3-Difluoro-1-azabicyclo[3.2.0]heptan-5-yl)methoxy)-1-fluoro-5-methyl-2-(4-methyl-3-(trifluoromethyl)pyridin-2-yl)-5a,6,7,8,9,10-hexahydro-5H-4-oxa-3,10a,11,13,14-pentaaza-6,9-methanonaphtho[1,8-ab]heptalene]
- IC50 (KRAS G12D): 1470 nM
- IC50 (KRAS WT [1]): 1620 nM
- IC50 ([2]; Homo sapiens, ASPC1, 168 h): 20000 nM
- IC50 ([6]; Homo sapiens, PC-9, 168 h): 20000 nM

SMILES: Cc1c(F)c(N)cc(-c2nc3c4c(nc(OC[C@]56CCN(C)C5COC6)nc4c2F)N2C[C@H]4CC[C@H](N4)[C@H]2[C@H](C)O3)c1C(F)(F)F (single isomer, unassigned) [258 (isomer 2)]
- IC50 (KRAS G12D): 0.07 nM
- IC50 (KRAS WT [5]; read-out: KRas HTRF IC50): 11 nM
- IC50 ([2]; Homo sapiens, ASPC1, 168 h): 6.9 nM
- IC50 ([3]; Homo sapiens, HPAC, 168 h): 2.68 nM
- IC50 ([4]; Homo sapiens, NCI-H1975, 168 h): 1550 nM
